# How the values were obtained:
# HIV virions = test: Infectivity of ODN-pre-incubated HIV virions in C81-66/45 cells; format: cell-based
# Experimental: As a next step we investigated the antiviral effect of ODNs by testing the infectivity of treated virions in cell culture studies. We used ODN A, ODN T, as PPT and ODN CO. 2×10^5 C81-66/45 cells were infected with virions pre-incubated with different ODNs at 0.01 MOI for 1, 2 or 4 hours prior to infection. RNA was extracted from infected cells and HIV replication was analysed by real-time PCR 3 days post-infection.
# To test the specificity of suppression of viral replication, the effect of ODN A on the infectivity of virions was compared with control ODNs. Virions were pre-treated with the ODNs and HIV replication in infected cells was analysed by real-time PCR, 5 days (FIG. 6A) or 20 days post-infection (FIG. 6B) and by measuring p24 production in the supernatant of the infected cells (FIG. 6C).
# (A) HIV virions were incubated with 0.5 μM of ODNs for 1, 2 or 4 hours. C81-66/45 cells were infected with pre-incubated virions, at 0.01 MOI. RNA was extracted from infected cells and HIV replication was analysed by real-time PCR, 3 days post-infection (p.i.).
# (B) The same experiment as in (A) was performed with ODN T, ODN CO, asPPT and ODN A pre-treated virions.
# (D) C81-66145 cells were infected with virions pre-incubated with 0.5 or 5 μM of ODNs for 4 h, at an MOI of 1. RNA was extracted from infected cells and HIV replication was analysed by real-time PCR, 3 days post-infection.
# (E) C81-66/45 cells were infected with virions pre-incubated with ODN A and ODN Sc for 4 h, at an MOI of 0.01. RNA was extracted from infected cells and HIV replication was analysed by real-time PCR, 1 h and 24 h post-infection. (F) The same experiment as in (E) was performed except for using ODN T, ODN B and ODN A, 1 hour post-infection.
# C81-66/45 cells were infected with virions pre-incubated with ODN A, ODN T, ODN CO or as PPT for 4 h, at MOI of 0.01. RNA was extracted from infected cells and HIV replication was analysed by real-time PCR, 5 days p.i. (A), and 20 days p.i. (B); by measuring p24 production in the medium of the infected cells (C) or by RT-PCR, 11 days p.i. (D).
# SFFV [1] = test: Early i.v. therapy 2, 6 and 10 hours after SFFV infection of mice; format: in vivo; settings: i.v. treatment 2, 6 and 10 hours after infection; for establishment of SFFV infection (PCR of blood samples): whole period tested
# Experimental: In another experimental setting we assessed the effect of an i.v. therapy early after infection. We infected mice with SFFV and treated them 2, 6, and 10 hours later with ODN M, asPPT or PBS.
# c. Mice infected with SFFV (4×10^2 FFU) i.v. received triple-treatments with ODNs at 2, 6 and 10 hours post-infection. Real-time RT-PCR analysis (graph) and RT-PCR (gel analysis) was performed with RNA from plasma beginning at day 5 and at the days indicated.
# SFFV [2] = test: NIH 3T3 cells infected with SFFV for 2 h and then treated; format: cell-based; settings: treatment 2 h after infection, three concentrations, no carrier, three days post-infection
# Experimental: In the next experiment NIH 3T3 cells were infected with SFFV for 2 h and then treated with three different concentrations each of ODN M, asPPT, and three different siRNAs.
# c. NIH-3T3 cells were infected with SFFV for 2 hours and then treated with three decreasing concentrations of ODN M, asPPT and three different PPT-specific siRNAs. RNA was isolated from supernatants three days post-infection and analyzed by real time RT-PCR.
# RT/RNaseH = RT/RNaseH (Human immunodeficiency virus type 1 group M subtype B, UniProt P04585); test: Primer extension assay on synthetic RNA2; format: biochemical, HIV-1; design: the HIV RT/RNase H is a heterodimer of p66 and p51 with and without RNase H; settings: synthetic RNA2, FIG. 2B
# Source text: To test whether an ODN-mediated activity would preferentially occur at the PPT, we analysed ODNs targeted to the extended PPT (ODN A) or to a region outside of the PPT (ODN CO and an external antisense oligodeoxynucleotide asEXT) in vitro. We used RNA2, which contains the PPT and the binding sites for ODN A, asEXT and ODN CO. […] Indeed, in the reaction mixture containing both ODN A and asEXT primers, extension products, predominantly synthesized by the RT/RNaseH, started with ODN A and not asEXT (FIG. 2B). […] Thus, the ability of the ODN A to mediate RT/RNaseH-dependent cleavage of the viral RNA is PPT-dependent.
# (A) Cleavage assay. 10 nM of in vitro transcribed 5′-labeled RNA was hybridized with 10, 100 and 1000 nM of ODN A and incubated in the presence of RT/RNaseH. The cleavage products were analyzed by denaturing PAGE as described in Materials and methods. (B). Primer extension assay. Synthetic RNA2 was hybridized with ODN A, antisense primer (asEXT) or both primers combined, and the primer extension was performed as described in Materials and Methods. Elongation products were analysed by 8 M urea/10% PAGE. (C) Cleavage assay. RNA/ODN hybrids, obtained using 10 nM of RNA2 and 10 nM of ODN A, asPPT or ODN CO were incubated with RT/RNaseH and cleavage products were analyzed by denaturing PAGE as described in Materials and methods. […]
# [3] = virions pre-incubated 4 hours with 0.5 μM ODN, 0.01 MOI, 3 days post-infection
Sequence,HIV replication in infected cells (real-time PCR) (HIV virions; [3]),health of infected mice (spleen enlargement in mock-treated) (SFFV [1]),establishment of SFFV infection (PCR of blood samples) (SFFV [1]),"antiviral effect, SFFV RNA in supernatants (SFFV [2])","HIV replication in infected cells (real-time PCR) (HIV virions; ODN-pre-treated virions, MOI of 1, 3 days post-infection)","binding/uptake of pre-treated virions by host cells (HIV virions; pre-incubation 4 hours, HIV RNA in infected cells 1 hour post-infection)","time without sign of virus replication after infection (HIV virions; virions pre-incubated 4 h, MOI of 0.01, real-time PCR, p24, RT-PCR, syncytia)","viral RNA in infected cells (HIV virions; virions pre-treated 4 h, 24 hours after infection)","virion uptake by cells, less efficient compared to ODN Sc-treated virions (HIV virions; virions pre-treated 4 hours, HIV RNA in infected cells 1 hour post-infection) [%]",primer extension by RT/RNaseH compared to asEXT (RT/RNaseH)
"CCCTTCCAGTCCCCCCTTTTCTTTT (chemistry not given here) [asPPT, single-stranded antisense PPT of HIV, lacks the passenger strand and the linker]",low but detectable levels,healthy,prevented the establishment of the SFFV-infection,–,–,–,–,–,–,–
"TCTTTTTGGGGGGTTTGTTTGTTTTTTCTTTCATTCCCCCCTTTTTCT (chemistry not given here) [ODN M, 22-mer antisense and 22-mer second strand connected by T4, targeted to extended PPT of SFFV]",–,healthy,prevented the establishment of the SFFV-infection,slightly superior to the asPPT but much stronger compared to siRNA,–,–,–,–,–,–
"TTTTCTTTTGGGGGGTTTGGTTGGGTTTTCCCTTCCAGTCCCCCCTTTTCTTTT (phosphorothioate linkages, further chemistry not given here) [ODN A, 25 mer antisense and 25 mer passenger strand connected by T4, phosphorothioated at each end and in linker, targeted to extended PPT of HIV-1]",complete suppression of viral replication,–,–,–,only partial suppression of HIV replication,did not significantly interfere with binding,at least 20 days,completely degraded,14,more efficiently

# — patent US20160281089A1, “PREVENTION OF VIRAL INFECTIVITY” (priority 2005, published 2016)
